Experimental data reported in PMC12488667, “Orodispersible films containing chestnut shell phenolics for buccal delivery: a preclinical approach for oral mucositis prevention” (Frontiers in Medical Technology, 2025).
Marks after values point to notes of the source that are not given here.

What was measured:
TR146 cells = test: In vitro permeation, buccal model; assay type: in vitro ADME, human
Experimental: The in vitro permeability of the bioactive compounds present in OFs (n = 9) was determined using a co-culture model composed of TR146 ([31]). The extract and the CS-loaded OFs were added to the apical side of the model as a stock solution. […] The Transepithelial Electrical Resistance (TEER) of the model was evaluated before, during, and at the end of the permeability assay using an EVOM Epithelial Volthometer equipped with a chopstick electrode (World Precision Instruments, Sarasota, FL, USA).
(§1) The identification and quantification of the phenolic compounds present in the extract and the OFs, as well as the compounds that permeated from the OFs through in vitro and ex vivo assays, were conducted using an LC-ESI-LTQ-Orbitrap-HRMS equipment with an Accela chromatograph (Thermo Scientific, Hemel Hempstead, UK), a photodiode array detector, a quaternary pump, and a temperature-controlled autosampler coupled to a high-resolution LTQ Orbitrap Velos mass spectrometer (Thermo Scientific, Hemel Hempstead, UK) with an ESI source in negative mode ([33], [34]). The system was controlled using the Xcalibur v3.0 software (ThermoFisher Scientific, Hemel Hempstead, UK). Elution was performed on an Acquity™ UPLC® BEH C18 Column (2.1 × 100 mm, i.d., 1.7 µm particle size, Waters Corporation, Wexford, Ireland) maintained at 30°C.
(§2) Gradient elution was performed with water (A) and acetonitrile (B), both with 0.1% formic acid, with a flow rate and injection volume of 450 µl/min and 5 µl, respectively. The solvent gradient (v/v) of B [t (min), %B] was set as follows: (0, 0), (2, 0), (4, 30), (8, 100), (10, 100), (11, 0), and (14, 0). The samples were analyzed in the full scan mode at a resolving power of 30,000 and m/z 600. Data-dependent MS/MS events were acquired at a resolution of 15,000. Most intense ions were detected via the FTMS mode-triggered data-dependent acquisition mode. Ions that were not sufficiently intense for a data-dependent scan were explored in MSn mode. Precursors were fragmented by collision-induced dissociation using a C-trap with a normalized collision energy (35 V) and an activation time of 10 ms. […] Compounds whose theoretical [M–H]^− values exceeded the MS¹ acquisition range (m/z 100–600) were annotated based on characteristic MSⁿ fragment ions detected within the scan window.

[1] = Ex vivo permeation, Franz cells; assay type: in vitro ADME, porcine
Experimental: Porcine buccal mucosa was used to evaluate the buccal permeation of the phenolic compounds in the extract and the CS-loaded OFs (n = 9). The porcine buccal mucosa was purchased in a local butcher shop, not requiring ethical approval. A Franz cell assembly (9 mm clear jacketed Franz cell with a flat ground joint, 5 ml receptor volume, and permeation area of 0.785 cm^2; PermeGear, Inc., USA) was used. This experiment followed the methodology described by Rodrigues et al. ([32]). In the Franz apparatus, the porcine buccal mucosa was positioned with the cheek side facing the donor chamber, which contained 500 µl (1,000 μg/ml) of the CS extract or the CS-loaded OFs (two square films (2 × 2 cm) with […] of thickness were dissolved in 4 ml of artificial saliva; donor concentration was normalized to ensure equivalence between the extract solution and the film formulation). The receptor chamber was filled with 5 ml PBS, maintained at 37°C, and stirred continuously at 150 rpm. The volume was maintained through the experiments.
as §1, §2
Quantitative analysis was performed by using a validated chromatographic method ([38]).

Row | Structure (SMILES) | Quantification of permeated compounds (TR146 cells; CS extract) | Quantification of permeated compounds (TR146 cells; CS-loaded OFs) | Permeation (%) (TR146 cells; from CS extract, 15 min) | Permeation (%) (TR146 cells; from CS extract, 30 min) | Permeation (%) (TR146 cells; from CS extract, 45 min) | Permeation (%) (TR146 cells; from CS extract, 60 min) | Permeation (%) (TR146 cells; from CS extract, 90 min) | Permeation (%) (TR146 cells; from CS extract, 120 min) | Permeation (%) (TR146 cells; from CS extract, 180 min) | Permeation (%) (TR146 cells; from CS extract, 240 min) | Permeation (%) (TR146 cells; from CS-loaded OFs, 15 min) | Permeation (%) (TR146 cells; from CS-loaded OFs, 45 min) | Permeation (%) (TR146 cells; from CS-loaded OFs, 60 min) | Permeation (%) (TR146 cells; from CS-loaded OFs, 90 min) | Permeation (%) (TR146 cells; from CS-loaded OFs, 120 min) | Permeation (%) (TR146 cells; from CS-loaded OFs, 180 min) | Permeation (%) (TR146 cells; from CS-loaded OFs, 240 min) | Quantification of permeated compounds ([1]; CS extract) | Quantification of permeated compounds ([1]; CS-loaded OFs) | Permeation (%) ([1]; from CS extract, 15 min) | further results
1 | O=C(O)C[C@H](C(=O)O)[C@@H](O)C(=O)O [Isocitric acid] | 222.23 ± 6.57^a mg/ml | 306.36 ± 13.65^b mg/g film | 0.04 ± 0.01^a % | 0.12 ± 0.03^a % | 0.15 ± 0.01^a % | 0.15 ± 0.01^a % | 0.24 ± 0.03^a % | 0.33 ± 0.02^a^,^b % | 0.54 ± 0.04^a^,^b % | 0.70 ± 0.01^b % | 0.15 ± 0.001^a % | 0.50 ± 0.06^a % | 0.62 ± 0.02^a % | 1.04 ± 0.01^b % | 1.40 ± 0.04^b % | 2.77 ± 0.01^b % | 3.38 ± 0.06^b % | 2.20 ± 0.05^a mg/ml | 2.21 ± 0.16^a mg/g film | 15.13 ± 0.29^a % | Permeation (%) (TR146 cells; from CS-loaded OFs, 30 min): 0.29 ± 0.05^a %; Permeation (%) ([1]; from CS extract, 30 min): 13.91 ± 1.51^a %; Permeation (%) ([1]; from CS-loaded OFs, 15 min): 19.05 ± 1.12^a %; Permeation (%) ([1]; from CS-loaded OFs, 30 min): 19.02 ± 0.90^a %
2 | O=C(O)c1ccc(O)c(O)c1 [Protocatechuic acid] | 0.53 ± 0.03^a mg/ml | 0.41 ± 0.02^a mg/g film | 39.32 ± 0.96^b % | 43.86 ± 1.62^b % | 42.03 ± 0.79^b % | 38.29 ± 0.86^b % | 37.52 ± 0.97^b % | 25.84 ± 1.03^a % | 40.40 ± 0.82^c % | 32.88 ± 0.87^b % | 89.42 ± 3.08^b % | 85.88 ± 2.01^b % | 94.08 ± 3.56^b % | 96.88 ± 1.43^b % | 106.06 ± 0.78^b % | 84.76 ± 2.51^b % | 75.80 ± 0.91^a % | 0.97 ± 0.03^b mg/ml | 0.13 ± 0.01^a mg/g film | 19.05 ± 1.63^a % | Permeation (%) (TR146 cells; from CS-loaded OFs, 240 min, listed as protocatechuic acid): 75.80%; Permeation (%) ([1]; from CS extract, 30 min): 19.06 ± 0.61^a %
3 | O=C(O)CCC(=O)O [Succinic acid] | 1.60 ± 0.03^a mg/ml | 0.82 ± 0.01^a mg/g film | 20.51 ± 1.62^b % | 14.86 ± 2.71^a % | 16.09 ± 1.85^a % | 14.96 ± 0.46^a % | 19.54 ± 0.94^b % | 20.71 ± 1.67^b % | 21.62 ± 0.61^b % | 23.76 ± 1.68^b % | 44.20 ± 2.19^a % | 56.70 ± 1.23^b % | 57.45 ± 0.78^b % | 79.12 ± 4.41^c % | 88.23 ± 1.26^c % | 103.25 ± 1.42^d % | 100.86 ± 1.75^d % | 1.26 ± 0.01^b mg/ml | 0.38 ± 0.01^a mg/g film | 60.67 ± 0.21^b % | Permeation (%) (TR146 cells; from CS-loaded OFs, 30 min): 64.44 ± 1.03^c %; Permeation (%) (TR146 cells; from CS-loaded OFs, 240 min, listed as succinic acid): 100.86%; Permeation (%) ([1]; from CS extract, 30 min): 70.72 ± 3.61^b %; Permeation (%) ([1]; from CS-loaded OFs, 15 min): 14.00 ± 0.63^a %; Permeation (%) ([1]; from CS-loaded OFs, 30 min): 16.11 ± 0.72^a %
